Where two headings read alike, the source gives them in different places.
What was measured:
Ba/F3-AXL cells = experiment: Assay for inhibiting the proliferation of Ba/F3-AXL cells (CCK-8); format: cell-based; settings: 72 hours of incubation, medium with 100 ng/mL hGas6, CCK-8
Experimental: The values were then imported into Graphpad Prism 5 software for curve fitting, and IC50 was calculated.

TRKA kinase = TRKA kinase (Homo sapiens (Human), UniProt P04629); experiment: Assay of small molecular compounds for inhibiting the activity of TRKA kinase (LANCE TR-FRET); format: biochemical
Chain of TRKA kinase (P04629 33-796): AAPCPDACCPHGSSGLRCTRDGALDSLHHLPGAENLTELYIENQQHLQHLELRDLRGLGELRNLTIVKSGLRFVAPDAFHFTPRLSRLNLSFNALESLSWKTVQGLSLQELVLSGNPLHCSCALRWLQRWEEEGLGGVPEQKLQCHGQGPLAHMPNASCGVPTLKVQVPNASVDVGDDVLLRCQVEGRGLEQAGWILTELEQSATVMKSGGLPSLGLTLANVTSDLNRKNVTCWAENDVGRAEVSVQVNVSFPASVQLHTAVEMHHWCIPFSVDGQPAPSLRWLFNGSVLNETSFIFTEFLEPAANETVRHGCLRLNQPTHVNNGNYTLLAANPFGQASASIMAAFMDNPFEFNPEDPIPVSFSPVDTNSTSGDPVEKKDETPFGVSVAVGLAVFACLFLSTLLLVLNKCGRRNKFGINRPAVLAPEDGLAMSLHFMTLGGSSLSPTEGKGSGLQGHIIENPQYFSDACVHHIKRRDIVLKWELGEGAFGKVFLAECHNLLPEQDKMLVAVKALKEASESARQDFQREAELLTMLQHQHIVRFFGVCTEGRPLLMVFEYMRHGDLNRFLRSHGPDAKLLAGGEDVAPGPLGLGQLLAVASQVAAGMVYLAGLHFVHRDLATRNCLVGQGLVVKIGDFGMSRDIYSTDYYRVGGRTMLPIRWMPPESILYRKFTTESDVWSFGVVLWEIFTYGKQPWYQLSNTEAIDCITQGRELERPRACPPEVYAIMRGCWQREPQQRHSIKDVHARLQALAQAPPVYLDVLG
In short: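 LANCE TR-FRET with ULight-TK peptide; compounds pre-incubated 5 min with TRKA (2× solution 2 nM), then substrate/ATP added (4× mix: 400 nM peptide, 40 μM ATP). Reaction 60 min at room temperature in dark, 1% DMSO final; stopped, detection developed 60 min, signal read.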

c-MET kinase = c-MET kinase (Homo sapiens (Human), UniProt P08581); experiment: Assay of small molecular compounds for inhibiting the activity of c-MET kinase (LANCE TR-FRET); format: biochemical; settings: read-out: CMET IC50
Chain of c-MET kinase (P08581 25-1390): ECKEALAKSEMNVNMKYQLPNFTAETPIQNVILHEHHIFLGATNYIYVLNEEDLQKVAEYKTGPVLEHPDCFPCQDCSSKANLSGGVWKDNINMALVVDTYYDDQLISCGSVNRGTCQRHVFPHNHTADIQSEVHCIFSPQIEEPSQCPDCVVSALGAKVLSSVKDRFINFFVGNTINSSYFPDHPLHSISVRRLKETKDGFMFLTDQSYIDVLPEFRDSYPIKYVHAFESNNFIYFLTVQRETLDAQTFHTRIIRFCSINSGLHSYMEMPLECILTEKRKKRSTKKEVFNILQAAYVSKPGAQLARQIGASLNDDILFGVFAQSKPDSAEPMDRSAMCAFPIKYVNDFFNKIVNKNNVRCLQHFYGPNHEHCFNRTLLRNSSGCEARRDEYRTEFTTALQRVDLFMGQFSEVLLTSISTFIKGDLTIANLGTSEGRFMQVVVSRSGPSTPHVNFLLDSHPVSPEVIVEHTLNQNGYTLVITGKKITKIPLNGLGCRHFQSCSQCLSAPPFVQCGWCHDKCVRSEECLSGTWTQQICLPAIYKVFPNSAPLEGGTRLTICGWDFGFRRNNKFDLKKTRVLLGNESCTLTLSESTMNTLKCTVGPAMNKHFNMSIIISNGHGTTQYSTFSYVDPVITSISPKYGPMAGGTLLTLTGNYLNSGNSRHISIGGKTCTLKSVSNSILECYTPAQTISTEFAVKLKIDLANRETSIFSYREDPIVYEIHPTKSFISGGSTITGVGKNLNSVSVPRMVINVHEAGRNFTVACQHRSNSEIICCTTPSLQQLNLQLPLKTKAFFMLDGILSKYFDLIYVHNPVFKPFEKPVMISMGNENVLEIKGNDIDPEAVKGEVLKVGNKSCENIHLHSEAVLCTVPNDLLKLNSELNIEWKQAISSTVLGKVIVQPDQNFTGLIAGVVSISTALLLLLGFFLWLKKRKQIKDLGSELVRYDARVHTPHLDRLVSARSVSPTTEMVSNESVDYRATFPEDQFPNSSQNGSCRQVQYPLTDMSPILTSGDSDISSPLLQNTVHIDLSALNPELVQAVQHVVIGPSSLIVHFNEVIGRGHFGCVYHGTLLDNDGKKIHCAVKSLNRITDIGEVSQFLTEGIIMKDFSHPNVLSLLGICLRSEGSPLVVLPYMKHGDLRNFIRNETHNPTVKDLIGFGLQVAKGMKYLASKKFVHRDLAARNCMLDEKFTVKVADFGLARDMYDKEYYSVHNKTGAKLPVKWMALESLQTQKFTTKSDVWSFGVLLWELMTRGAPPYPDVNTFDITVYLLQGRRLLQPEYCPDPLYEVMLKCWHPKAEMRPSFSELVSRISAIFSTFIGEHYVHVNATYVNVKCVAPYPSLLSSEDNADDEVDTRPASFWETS
In short: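 LANCE TR-FRET assay with c-MET at 1 nM final after a 5 min room-temperature preincubation with compound (11-point, 3-fold series, 2500–0.042 nM final, 4% DMSO). ULight-JAK-1 (Tyr1023) peptide (100 nM final) and ATP (10 μM final) reacted 60 min in the dark. Inhibition was taken relative to controls, then IC50 fitted.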

Ba/F3 LMNA-NTRK1 cells = experiment: Assay for inhibiting the proliferation of Ba/F3 LMNA-NTRK1 cells (CCK-8); format: cell-based
In short: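 Cells were seeded and cultured overnight, then treated with graded compound concentrations (final DMSO 0.25%) for 72 h. CCK-8 was added for 1–2 h at 37 °C and OD450 read. Survival was normalised to untreated and cell-free blank wells, and IC50 was fitted.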

Row | Structure (SMILES) | IC50 (Ba/F3-AXL cells) [nM] | IC50 (TRKA kinase) [nM] | IC50 (c-MET kinase) [nM] | IC50 (Ba/F3 LMNA-NTRK1 cells; Mus musculus, BaF3) [nM] | IC50 (Ba/F3 LMNA-NTRK1 cells) [nM]
1 | CCOc1ccn(-c2ccc(F)cc2)c(=O)c1C(=O)Nc1ccc(Oc2ccnc3cc(OC)c4c(c23)OCCO4)cc1Cl [Example 126, N-(2-chloro-4-((5-methoxy-2,3-dihydro-[1,4]dioxino[2,3-f]quinolin-10-yl)oxy)phenyl)-1-(4-fluorophenyl)-4-ethoxy-2-oxo-1,2-dihydropyridine-3-carboxamide] | < 50 | < 50 | ≤ 50 | < 50 | 
2 | CCOc1ccn(-c2ccc(F)cc2)c(=O)c1C(=O)Nc1cc(F)c(Oc2ccnc3cc(OC)c4c(c23)OCCO4)cc1Cl [Example 115, N-(2-chloro-5-fluoro-4-((5-methoxy-2,3-dihydro-[1,4]dioxino[2,3-f]quinolin-10-yl)oxy)phenyl)-4-ethoxy-2-oxo-1-(4-fluorophenyl)-1,2-dihydropyridin-3-carboxamide] | < 50 | < 50 | ≤ 50 | < 50 | 
3 | COc1cc2nccc(Oc3cc(Cl)c(NC(=O)c4cn(C)c(=O)n(-c5ccc(F)cc5)c4=O)cc3F)c2c2c1OCCO2 [Example 116, N-(2-chloro-5-fluoro-4-((5-methoxy-2,3-dihydro-[1,4]dioxino[2,3-f]quinolin-10-yl)oxy)phenyl)-3-(4-fluorophenyl)-1-methyl-2,4-dioxo-1,2,3,4-tetrahydropyrimidine-5-carboxamide] | < 50 | < 50 | ≤ 50 | < 50 | 
4 | Cn1cc(C(=O)Nc2ccc(Oc3ccnc4cc(OCCCN5CCOCC5)c5c(c34)OCCO5)c(F)c2)c(=O)n(-c2ccc(F)cc2)c1=O [Example 15, N-(3-fluoro-4-((5-(3-morpholinopropoxy)-2,3-dihydro-[1,4]dioxino[2,3-f]quinolin-10-yl)oxy)phenyl)-3-(4-fluorophenyl)-1-methyl-2,4-dioxo-1,2,3,4-tetrahydropyrimidine-5-carboxamide] | < 50 | < 50 | ≤ 50 | < 50 | 
5 | COCCN(C)CCCOc1cc2nccc(Oc3ccc(NC(=O)c4cn(C(C)C)c(=O)n(-c5ccc(F)cc5)c4=O)cc3F)c2c2c1OCCO2 [Example 95, N-(3-fluoro-4-((5-(3-((2-methoxyethyl)(methyl)amino)propoxy)-2,3-dihydro-[1,4]dioxino[2,3-f]quinolin-10-yl)oxy)phenyl)-3-(4-fluorophenyl)-1-isopropyl-2,4-dioxo-1,2,3,4-tetrahydropyrimidine-5-carboxamide] | < 50 | < 50 | ≤ 50 | 50 to 200 | 
6 | O=C(Nc1ccc(Oc2ccnc3cc(OCCCN4CCCCC4)c4c(c23)OCCO4)c(F)c1)c1cccn(-c2ccc(F)cc2)c1=O [Example 31, N-(3-fluoro-4-((5-(3-(piperidin-1-yl)propoxy)-2,3-dihydro-[1,4]dioxino[2,3-f]quinolin-10-yl)oxy)phenyl)-1-(4-fluorophenyl)-2-oxo-1,2-dihydropyridine-3-carboxamide] | < 50 | < 50 | ≤ 50 |  | < 50
7 | CC(C)n1cc(C(=O)Nc2ccc(Oc3ccnc4cc(OCCCN5CCOCC5)c5c(c34)OCCO5)c(F)c2)c(=O)n(-c2ccc(F)cc2)c1=O [Example 16, N-(3-fluoro-4-((5-(3-morpholinopropoxy)-2,3-dihydro-[1,4]dioxino[2,3-f]quinolin-10-yl)oxy)phenyl)-3-(4-fluorophenyl)-1-isopropyl-2,4-dioxo-1,2,3,4-tetrahydropyrimidine-5-carboxamide] | < 50 | < 50 | ≤ 50 | < 50 | 
8 | COc1cc2nccc(Oc3ccc(NC(=O)c4cn(CC(=O)O)c(=O)n(-c5ccc(F)cc5)c4=O)cc3F)c2c2c1OCCO2 [Example 104, 2-(5-((3-fluoro-4-((5-methoxy-2,3-dihydro-[1,4]dioxino[2,3-f]quinolin-10-yl)oxy)phenyl)carbamoyl)-3-(4-fluorophenyl)-2,4-dioxo-3,4-dihydropyrimidin-1(2H)-yl)acetic acid] | > 5000 | < 50 | ≤ 50 | > 1000 | 
9 | COCCOc1cc2nccc(Oc3ccc(NC(=O)c4c(OC)ccn(-c5ccc(F)cc5)c4=O)cc3F)c2c2c1OCCO2 [Example 35, N-(3-fluoro-4-((5-(2-methoxyethoxy)-2,3-dihydro-[1,4]dioxino[2,3-f]quinolin-10-yl)oxy)phenyl)-1-(4-fluorophenyl)-4-methoxy-2-oxo-1,2-dihydropyridine-3-carboxamide] | < 50 | < 50 | ≤ 50 | < 50 | 
10 | CCn1cc(C(=O)Nc2ccc(Oc3ccnc4cc(OCCCN5CCOCC5)c5c(c34)OCCO5)c(F)c2)c(=O)n(-c2ccc(F)cc2)c1=O [Example 38, N-(3-fluoro-4-((5-(3-morpholinopropoxy)-2,3-dihydro-[1,4]dioxino[2,3-f]quinolin-10-yl)oxy)phenyl)-3-(4-fluorophenyl)-1-ethyl-2,4-dioxo-1,2,3,4-tetrahydropyrimidine-5-carboxamide] | < 50 | < 50 | ≤ 50 | < 50 | 
11 | CCOc1ccn(-c2ccc(Cl)cc2)c(=O)c1C(=O)Nc1ccc(Oc2ccnc3cc(OC)c4c(c23)OCCO4)c(F)c1 [Example 113, N-(3-fluoro-4-((5-methoxy-2,3-dihydro-[1,4]dioxino[2,3-f]quinolin-10-yl)oxy)phenyl)-2-oxo-4-ethoxy-1-(4-chlorophenyl)-1,2-dihydropyridin-3-carboxamide] | < 50 | < 50 | ≤ 50 | < 50 | 
12 | COCCOc1cc2nccc(Oc3ccc(NC(=O)c4cccn(-c5ccc(F)cc5)c4=O)cc3F)c2c2c1OCCO2 [Example 34, N-(3-fluoro-4-((5-(2-methoxyethoxy)-2,3-dihydro-[1,4]dioxino[2,3-f]quinolin-10-yl)oxy)phenyl)-1-(4-fluorophenyl)-2-oxo-1,2-dihydropyridine-3-carboxamide] | < 50 | < 50 | ≤ 50 | < 50 | 
13 | COc1ccn(-c2ccc(F)cc2)c(=O)c1C(=O)Nc1ccc(Oc2ccnc3cc(OCCCC#N)c4c(c23)OCCO4)cc1Cl [Example 132, N-(2-chloro-4-((5-(3-cyanopropoxy)-2,3-dihydro-[1,4]dioxino[2,3-f]quinolin-10-yl)oxy)phenyl)-1-(4-fluorophenyl)-4-methoxy-2-oxo-1,2-dihydropyridine-3-carboxamide] | < 50 | < 50 | ≤ 50 | < 50 | 
14 | COc1ccn(-c2ccc(F)cc2)c(=O)c1C(=O)Nc1ccc(Oc2ccnc3cc(OCCCN4CCOCC4)c4c(c23)OCCO4)c(F)c1 [Example 21, N-(3-fluoro-4-((5-(3-morpholinopropoxy)-2,3-dihydro-[1,4]dioxino[2,3-f]quinolin-10-yl)oxy)phenyl)-1-(4-fluorophenyl)-4-methoxy-2-oxo-1,2-dihydropyridine-3-carboxamide] | < 50 | < 50 | ≤ 50 | < 50 | 
15 | CCn1cc(C(=O)Nc2ccc(Oc3ccnc4cc(OC)c5c(c34)OCCO5)c(F)c2)c(=O)n(-c2ccc(F)cc2)c1=O [Example 37, N-(3-fluoro-4-((5-methoxy-2,3-dihydro-[1,4]dioxino[2,3-f]quinolin-10-yl)oxy)phenyl)-3-(4-fluorophenyl)-1-ethyl-2,4-dioxo-1,2,3,4-tetrahydropyrimidine-5-carboxamide] | < 50 | < 50 | ≤ 50 | < 50 | 
16 | CCOc1ccn(-c2ccc(F)cc2)c(=O)c1C(=O)Nc1ccc(Oc2ccnc3cc(OCCOC)c4c(c23)OCCO4)c(F)c1 [Example 36, N-(3-fluoro-4-((5-(2-methoxyethoxy)-2,3-dihydro-[1,4]dioxino[2,3-f]quinolin-10-yl)oxy)phenyl)-1-(4-fluorophenyl)-4-ethoxy-2-oxo-1,2-dihydropyridine-3-carboxamide] | < 50 | < 50 | ≤ 50 | < 50 | 
17 | CCOc1ccn(-c2ccc(F)cc2)c(=O)c1C(=O)Nc1ccc(Oc2ccnc3cc(OCCCN4CCOCC4)c4c(c23)OCCO4)c(F)c1 [Example 22, N-(3-fluoro-4-((5-(3-morpholinopropoxy)-2,3-dihydro-[1,4]dioxino[2,3-f]quinolin-10-yl)oxy)phenyl)-1-(4-fluorophenyl)-4-ethoxy-2-oxo-1,2-dihydropyridine-3-carboxamide] | < 50 | < 50 | ≤ 50 | < 50 | 
18 | Cn1cc(C(=O)Nc2ccc(Oc3ccnc4cc(OCC(C)(C)O)c5c(c34)OCCO5)cc2Cl)c(=O)n(-c2ccc(F)cc2)c1=O [Example 141, N-(2-chloro-4-((5-(2-hydroxy-2-methylpropoxy)-2,3-dihydro-[1,4]dioxino[2,3-f]quinolin-10-yl)oxy)phenyl)-3-(4-fluorophenyl)-1-methyl-2,4-dioxo-1,2,3,4-tetrahydropyrimidine-5-carboxamide] | < 50 | < 50 | ≤ 50 | < 50 | 

Source: patent US12202835B2, “Substituted aromatic ring-linked dioxinoquinazolines and dioxinoquinolines as kinase inhibitors” (BEIJING SCITECH-MQ PHARMACEUTICALS LIMITED, priority 2018, dated 2025)
